Assay [1] has as its target p38α (Homo sapiens, UniProt Q16539). Nature of the assay: p38 in-vitro HTRF enzyme assay. It counts as biochemical. As to conditions: IC50 value ranges. In short, it runs like this:
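Activated recombinant human p38α with ATP and 100 nM GST-ATF2-Avitag, 1 h at RT in Tris pH 7.5/MgCl2 buffer; compound 10-point 3-fold series from about 1 μM final. HTRF 665/620 nm ratio; IC50 from 4-parameter fit, Ki via Cheng-Prusoff with experimental ATP Km.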

For assay [2], the system named is THP1 cells. Nature of the assay: Lipopolysaccharide-activated THP1 cell TNF production assay. It counts as cell-based, human. As to conditions: Homo sapiens, THP-1; LPS-induced TNF-α production in THP1 cells. In short, it runs like this:
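THP1 cells at 1E6/mL were stimulated with LPS (1 μg/mL prepared stock) alongside 3-fold serially diluted compound for 3 h at 37 °C. Secreted TNF-α was quantified by electrochemiluminescence sandwich immunoassay. Percent of DMSO control was fitted to a 4-parameter logistic equation.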

Assay [3] deals with monocytes. Nature of the assay: Lipopolysaccharide-activated monocyte TNF production assay (LPS induced TNF release). It counts as cell-based, human. As to conditions: Homo sapiens, Monocyte; LPS induced TNF release from monocytes; read-out: LPS induced TNFa. In short, it runs like this:
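Adherent monocytes from human PBMCs were pretreated with compound 60 min, then stimulated with E. coli LPS (30 ng/mL stock added) for 4 h at 37 °C. Supernatant TNF-α measured by sandwich ELISA; concentration giving 50% TNF reduction derived by polynomial fit.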

Sequence of p38α (Q16539 whole entry): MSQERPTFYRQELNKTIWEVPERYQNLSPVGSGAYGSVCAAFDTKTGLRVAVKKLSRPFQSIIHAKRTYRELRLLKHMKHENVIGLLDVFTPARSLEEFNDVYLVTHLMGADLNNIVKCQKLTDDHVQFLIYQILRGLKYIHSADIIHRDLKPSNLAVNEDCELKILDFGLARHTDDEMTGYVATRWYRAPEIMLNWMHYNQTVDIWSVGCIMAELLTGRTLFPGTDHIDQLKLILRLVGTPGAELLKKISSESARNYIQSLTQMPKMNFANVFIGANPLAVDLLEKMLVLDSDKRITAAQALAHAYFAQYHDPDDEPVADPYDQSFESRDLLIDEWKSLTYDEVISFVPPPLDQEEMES

Turning to `Cc1ccc(C(=O)NC2CC2)cc1-c1cc2nnc(-c3ccccc3Cl)n2cc1C` [Example 35, 3-(3-(2-chlorophenyl)-6-methyl[1,2,4]triazolo[4,3-a]pyridin-7-yl)-N-cyclopropyl-4-methylbenzamide], the IC50 in assay [1] is < 25 nM; in assay [2], < 25 nM; in assay [3], 25 to 100 nM.

Consider `Cc1ccc(C(=O)Nc2ccnn2C)cc1-c1cc2nnc(-c3ccccc3Cl)n2cc1C` [Example 36, 3-(3-(2-chlorophenyl)-6-methyl[1,2,4]triazolo[4,3-a]pyridin-7-yl)-4-methyl-N-(1-methyl-1H-pyrazol-5-yl)benzamide], for which the IC50 in assay [1] is < 25 nM; in assay [2], < 25 nM; in assay [3], 25 to 100 nM.

As for `Cc1ccc(C(=O)NC2CC2)cc1-c1ccn2c(-c3ccccc3)nnc2c1` [Example 37, N-cyclopropyl-4-methyl-3-(3-phenyl[1,2,4]triazolo[4,3-a]pyridin-7-yl)benzamide], the IC50 was < 25 nM in assay [1], 100 to 250 nM in assay [2] and 250 to 1000 nM in assay [3].

As for `Cc1ccc(C(=O)NC2CC2)cc1-c1ccn2c(-c3cccc(F)c3Cl)nnc2c1` [Example 39, 3-(3-(2-chloro-3-fluorophenyl)[1,2,4]triazolo[4,3-a]pyridin-7-yl)-N-cyclopropyl-4-methylbenzamide], the IC50 in assay [1] is < 25 nM; in assay [2], 25 to 100 nM; in assay [3], 100 to 250 nM.

Regarding `CNC(=O)c1ccc(C)c(-c2ccn3c(-c4ccccc4Cl)nnc3c2)c1` [Example 40, 3-(3-(2-chlorophenyl)[1,2,4]triazolo[4,3-a]pyridin-7-yl)-N,4-dimethylbenzamide], the IC50 in assay [1] was in the range of 25 to 100 nM; in assay [2] it was 25 to 100 nM; in assay [3] it was 100 to 250 nM.

For `Cc1ccc(C(=O)Nc2ccnn2C)cc1-c1ccn2c(-c3cccc(F)c3Cl)nnc2c1` [Example 41, 3-(3-(2-chloro-3-fluorophenyl)[1,2,4]triazolo[4,3-a]pyridin-7-yl)-4-methyl-N-(1-methyl-1H-pyrazol-5-yl)benzamide], the values for the IC50 in assay [1], in assay [2] and in assay [3] were < 25 nM, < 25 nM and 25 to 100 nM, respectively.

As to `Cc1ccc(C(=O)NC2CC2)cc1-c1ccn2c(-c3ccc(F)cc3Cl)nnc2c1` [Example 42, 3-(3-(2-chloro-4-fluorophenyl)[1,2,4]triazolo[4,3-a]pyridin-7-yl)-N-cyclopropyl-4-methylbenzamide], the IC50 is < 25 nM in assay [1], 25 to 100 nM in assay [2] and 100 to 250 nM in assay [3].

On to `Cc1ccc(C(=O)NC(C)C)cc1-c1ccn2c(-c3ccccc3Cl)nnc2c1` [Example 43, 3-(3-(2-chlorophenyl)[1,2,4]triazolo[4,3-a]pyridin-7-yl)-4-methyl-N-(1-methylethyl)benzamide], for which the IC50 in assay [1] fell in the range of 25 to 100 nM; in assay [2] it was 100 to 250 nM; in assay [3], 250 to 1000 nM.

Take `Cc1ccc(C(N)=O)cc1-c1ccn2c(-c3ccccc3Cl)nnc2c1` [Example 44, 3-(3-(2-chlorophenyl)[1,2,4]triazolo[4,3-a]pyridin-7-yl)-4-methylbenzamide]: the IC50 in assay [1] was < 25 nM; in assay [2] it was 25 to 100 nM; in assay [3], 100 to 250 nM.

Consider `Cc1ccc(C(=O)Nc2ccnn2C)cc1-c1ccn2c(-c3ccc(F)cc3Cl)nnc2c1` [Example 45, 3-(3-(2-chloro-4-fluorophenyl)[1,2,4]triazolo[4,3-a]pyridin-7-yl)-4-methyl-N-(1-methyl-1H-pyrazol-5-yl)benzamide], for which the results for the IC50 in assay [1], in assay [2] and in assay [3] were < 25 nM, < 25 nM and 100 to 250 nM, respectively.

Turning to `Cc1ccc(C(=O)NC2CC2)cc1-c1ccn2c(-c3cc(F)ccc3Cl)nnc2c1` [Example 46, 3-(3-(2-chloro-5-fluorophenyl)[1,2,4]triazolo[4,3-a]pyridin-7-yl)-N-cyclopropyl-4-methylbenzamide], the IC50 in assay [1] is < 25 nM; in assay [2], < 25 nM; in assay [3], 25 to 100 nM.

As to `Cc1ccc(C(=O)Nc2ccnn2C)cc1-c1ccn2c(-c3cc(F)ccc3Cl)nnc2c1` [Example 47, 3-(3-(2-chloro-5-fluorophenyl)[1,2,4]triazolo[4,3-a]pyridin-7-yl)-4-methyl-N-(1-methyl-1H-pyrazol-5-yl)benzamide], the IC50 was < 25 nM in assay [1], < 25 nM in assay [2] and 25 to 100 nM in assay [3].

Regarding `Cc1ccc(C(=O)NC2CC2)cc1-c1ccn2c(-c3cc(F)c(F)cc3Cl)nnc2c1` [Example 48, 3-(3-(2-chloro-4,5-difluorophenyl)[1,2,4]triazolo[4,3-a]pyridin-7-yl)-N-cyclopropyl-4-methylbenzamide], the figures for the IC50 in assay [1], in assay [2] and in assay [3] were < 25 nM, 100 to 250 nM and 100 to 250 nM, respectively.

For the molecule `Cc1ccc(C(=O)Nc2ccnn2C)cc1-c1ccn2c(-c3cc(F)c(F)cc3Cl)nnc2c1` [Example 49, 3-(3-(2-chloro-4,5-difluorophenyl)[1,2,4]triazolo[4,3-a]pyridin-7-yl)-4-methyl-N-(1-methyl-1H-pyrazol-5-yl)benzamide], the results for the IC50 in assay [1], in assay [2] and in assay [3] were < 25 nM, 25 to 100 nM and 25 to 100 nM, respectively.

In the case of `Cc1c(F)cc(C(=O)NC2CC2)cc1-c1ccn2c(C(C)(C)C)nnc2c1` [Example 50, N-cyclopropyl-3-(3-(1,1-dimethylethyl)[1,2,4]triazolo[4,3-a]pyridin-7-yl)-5-fluoro-4-methylbenzamide], the IC50 in assay [1], in assay [2] and in assay [3] was < 25 nM each time.

On to `Cc1c(F)cc(C(=O)NC2CC2)cc1-c1ccn2c(-c3ccccc3Cl)nnc2c1` [Example 51, 3-(3-(2-chlorophenyl)[1,2,4]triazolo[4,3-a]pyridin-7-yl)-N-cyclopropyl-5-fluoro-4-methylbenzamide], for which the IC50 is < 25 nM in assay [1], < 25 nM in assay [2] and 25 to 100 nM in assay [3].

`CCNC(=O)c1ccc(C)c(-c2ccn3c(-c4ccccc4Cl)nnc3c2)c1` [Example 52, 3-(3-(2-chlorophenyl)[1,2,4]triazolo[4,3-a]pyridin-7-yl)-N-ethyl-4-methylbenzamide]: the IC50 in assay [1] was < 25 nM; in assay [2], 100 to 250 nM; in assay [3], 100 to 250 nM.

Consider `Cc1ccc(C(=O)NC2CC2)cc1-c1ccn2c(-c3sccc3C)nnc2c1` [Example 53, N-cyclopropyl-4-methyl-3-(3-(3-methyl-2-thienyl)[1,2,4]triazolo[4,3-a]pyridin-7-yl)benzamide], for which the IC50 in assay [1] was < 25 nM; in assay [2], 25 to 100 nM; in assay [3] it was 25 to 100 nM.

On to `Cc1ccc(C(=O)Nc2ccnn2C)cc1-c1ccn2c(-c3sccc3C)nnc2c1` [Example 54, 4-methyl-N-(1-methyl-1H-pyrazol-5-yl)-3-(3-(3-methyl-2-thienyl)[1,2,4]triazolo[4,3-a]pyridin-7-yl)benzamide], for which the IC50 in assay [1] is < 25 nM; in assay [2], < 25 nM; in assay [3], 25 to 100 nM.

On to `Cc1ccc(C(=O)NC2CC2)cc1-c1ccn2c(-c3sccc3Cl)nnc2c1` [Example 55, 3-(3-(3-chloro-2-thienyl)[1,2,4]triazolo[4,3-a]pyridin-7-yl)-N-cyclopropyl-4-methylbenzamide], for which the IC50 in assay [1] is < 25 nM; in assay [2] it was < 25 nM; in assay [3] it was 25 to 100 nM.

Values taken from US7700593B2, “Imidazo- and triazolo-pyridine compounds and methods of use thereof” (Amgen Inc., priority 2006, dated 2010).
